{"source": "patent US6989270B1", "about": "“Using polyamide nucleic acid oligomers to engender a biological response” (Mayo Foundation for Medical Education and Research, priority 1997, dated 2006)", "key": {"[1]": {"tested_on": "NTR1 cDNA synthesis from total brain RNA", "assay": "In vitro reverse transcription assay", "assay_type": "biochemical, rat", "conditions": "1 μg total brain RNA incubated with 600 ng PNA", "method": "An in vitro reverse transcription assay was performed-as follows. Total RNA was isolated from 20 mg of tissue using the RNeasy Kit (Qiagen, Chatsworth, Calif.). After isolation, total RNA (lug) was incubated with the PNA oligomers (600 ng) at 40° C. for 40 minutes. Exogenous cRNA standards were added, and cDNA was synthesized using the cDNA Cycle Kit and gene-specific primers for NTR1 and GAPDH (Invitrogen, Carlsbad, Calif.). The exogenous cRNA standards were synthesized from dsDNA templates using the Megashort-Script Kit (Ambion, Austin, Tex.). The dsDNA templates for exogenous cRNA standards for the NTR1- and GAPDH-specific cDNA reactions were constructed using the PCR MIMIC Construction Kit (Clontech) and composite primers. […] After using the cDNA Cycle Kit, quantitative PCR was performed on each sample. […] Products were detected using a Storm860 Phosphoimager (Molecular Dynamics, Sunnyvale, Calif.) and data were analyzed using Image Quant Software (Molecular Dynamics, Sunnyvale, Calif.).\nUsing this in vitro reverse transcription assay, 1 μg of total RNA isolated from the brain of an untreated rat was incubated with 600 ng of the AS-NTR1-PNA or mismatch-AS-NTR1PNA oligomer and NTR1 cDNA production assessed. […]"}, "NTR1 mRNA": {"tested_on": "NTR1 mRNA", "assay": "Quantitative RT-PCR of NTR1 mRNA relative to GAPDH", "assay_type": "in vivo", "conditions": "treated intracranially, 5 μg", "method": "(§1) Messenger RNA (mRNA) levels for NTR1, MU1R, and GAPDH were measured in control and PNA-treated animals. Briefly, total RNA was isolated from approximately 20 mg of tissue using the S.N.A.P. total RNA Isolation Kit (Invitrogen, Carlsbad, Calif.). Quantitative RT-PCR was performed on treated and control animals using GAPDH as an internal standard and PCR fragments of the human NTR and of a GAPDH deletion mutant as exogenous standards. First strand cDNA was synthesized from approximately 500 ng of total RNA using the cDNA Cycle Kit (Invitrogen, Carlsbad, Calif.). PCR was performed on a GeneAmp PCR System 9600 (Perkin Elmer, Norwalk, Conn.) using end-labeled primer and TAq DNA Polymerase (Gibco-BRL, Gaithersburg, Md.). Products were separated on a 5% acrylamide gel containing 7 M urea, and detected using a Storm860 Phosphoimager (Molecular Dynamics, Sunnyvale, Calif.). Data were analyzed using ImageQuant Software (Molecular Dynamics, Sunnyvale Calif.). To control for any diurnal mRNA level fluctuations that may occur, the PNA injection time was controlled such that the tissue harvest time was identical in each animal group."}, "morphine binding sites": {"tested_on": "morphine binding sites", "assay": "[3H]morphine binding in rest of brain and small intestine after i.p. AS-NTR1-PNA (Example 8)", "conditions": "for Binding (% change vs control) Morphine: 24 hours after i.p. injection"}, "[2]": {"tested_on": "[125I]neurotensin binding sites (NT receptors)", "assay": "[125I]neurotensin binding assay, PAG and hypothalamus homogenates of treated rats", "assay_type": "in vivo, rat", "conditions": "for number of receptors (mean ± SEM in fmol/mg wet wt.) / percent of control / Kd: 24 hours after single oral 10 mg/kg; for Kd: [125I]neurotensin, read-out: KD (mean ± SEM in nM)"}, "MU1R mRNA": {"tested_on": "MU1R mRNA", "assay": "Quantitative RT-PCR of MU1R mRNA relative to GAPDH", "assay_type": "in vivo", "conditions": "treated intracranially, 5 μg", "method": "as §1"}}, "note": "Like-named read-outs stand apart in the source and are kept apart here."}
{"substance": "NTR1-PNA: 12-mer antisense PNA oligomer to rat NTR1 coding region, 5′-CATTGCTCAAAC-3′ (SEQ ID NO: 1) (all peptide nucleic acid (PNA))", "values": [{"measurement": "reduction in NTR1 cDNA synthesis", "setting": "[1]", "result": 65, "unit": "%"}, {"measurement": "change in NTR1/GAPDH ratio of mRNA over time", "setting": "NTR1 mRNA", "result": "no significant change"}, {"measurement": "Binding (% change vs control) Morphine", "setting": "morphine binding sites; Rest of Brain", "result": "2 ± 2", "unit": "% change vs control"}, {"measurement": "Binding (% change vs control) Morphine", "setting": "morphine binding sites; Small Intestine", "result": "−7 ± 8", "unit": "% change vs control"}, {"measurement": "number of morphine binding sites compared to controls", "setting": "morphine binding sites; rest of brain or small intestine", "result": "no significant difference"}, {"measurement": "% Control dpm's", "setting": "[2]; Hypothalamus tissue, untreated control, PNA injected into PAG", "result": 55, "unit": "% Control"}, {"measurement": "number of receptors (mean ± SEM in fmol/mg wet wt.)", "setting": "[2]; Hypothalamus", "result": "240 ± 30", "unit": "fmol/mg wet wt."}, {"measurement": "percent of control", "setting": "[2]; Hypothalamus", "result": 51, "unit": "%"}, {"measurement": "NT binding sites reduced", "setting": "[2]; PAG and hypothalamus, 24 hours after oral 10 mg/kg", "result": 50, "unit": "%"}, {"measurement": "number of receptors (mean ± SEM in fmol/mg wet wt.)", "setting": "[2]; PAG", "result": "140 ± 20", "unit": "fmol/mg wet wt."}, {"measurement": "percent of control", "setting": "[2]; PAG", "result": 48, "unit": "%"}, {"measurement": "Kd", "setting": "[2]; PAG of treated rats", "result": "8.2 ± 0.7", "unit": "nM"}, {"measurement": "Kd", "setting": "[2]; hypothalamus of treated rats", "result": "7 ± 0.8", "unit": "nM"}, {"measurement": "change in MU1R/GAPDH ratio of mRNA", "setting": "MU1R mRNA", "result": "no significant change"}]}
